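Cultured in 96-well plates, cells were exposed to test compound for 48 hours across five concentrations. GI50: concentration for 50% inhibition of growth.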 Active and inactive are the calls of the source. Rule as the data show it: active = GI50 up to about 1.1 µM and inactive = higher.
Experiments:
Assay in all cases: NCI tumour cell line growth inhibition, 48 h
786-0 = tested on: 786-0
ACHN = tested on: ACHN
COLO 205 = tested on: COLO 205
Malme-3M = tested on: Malme-3M
NCI-H226 = tested on: NCI-H226
OVCAR-5 = tested on: OVCAR-5
OVCAR-8 = tested on: OVCAR-8
RXF 393 = tested on: RXF 393
SF-268 = tested on: SF-268
SF-539 = tested on: SF-539
SK-MEL-2 = tested on: SK-MEL-2
SK-OV-3 = tested on: SK-OV-3
SR = tested on: SR
UACC-257 = tested on: UACC-257
UACC-62 = tested on: UACC-62
CCRF-CEM = tested on: CCRF-CEM
HL-60 = tested on: HL-60
LOX IMVI = tested on: LOX IMVI
OVCAR-4 = tested on: OVCAR-4

Structure (SMILES): CCOC(=O)c1ccc(N2C(=O)Cc3ccccc3C2=O)cc1
- GI50 (786-0): > 100 µM (inactive)
- GI50 (ACHN): > 100 µM (inactive)
- GI50 (COLO 205): > 10 µM (inactive)
- GI50 (Malme-3M): > 100 µM (inactive)
- GI50 (NCI-H226): > 100 µM (inactive)
- GI50 (OVCAR-5): > 100 µM (inactive)
- GI50 (OVCAR-8): > 100 µM (inactive)
- GI50 (RXF 393): > 100 µM (inactive)
- GI50 (SF-268): > 100 µM (inactive)
- GI50 (SF-539): > 100 µM (inactive)
- GI50 (SK-MEL-2): > 100 µM (inactive)
- GI50 (SK-OV-3): > 100 µM (inactive)
- GI50 (SR): > 100 µM (inactive)
- GI50 (UACC-257): > 100 µM (inactive)
- GI50 (UACC-62): > 100 µM (inactive)

Structure (SMILES): O=[N+]([O-])c1nc(-c2ccccn2)[nH]c1[N+](=O)[O-]
- GI50 (ACHN): 64.3 µM (inactive)
- GI50 (CCRF-CEM): 33.3 µM (inactive)
- GI50 (COLO 205): 45.5 µM (inactive)
- GI50 (HL-60): 30.1 µM (inactive)
- GI50 (LOX IMVI): 68.7 µM (inactive)
- GI50 (Malme-3M): 57.4 µM (inactive)
- GI50 (NCI-H226): 74.1 µM (inactive)
- GI50 (OVCAR-4): 44.2 µM (inactive)
- GI50 (OVCAR-5): > 100 µM (inactive)
- GI50 (RXF 393): 76.7 µM (inactive)
- GI50 (SF-268): 43.6 µM (inactive)
- GI50 (SF-539): 39.6 µM (inactive)
- GI50 (SK-MEL-2): > 100 µM (inactive)
- GI50 (SK-OV-3): > 100 µM (inactive)
- GI50 (SR): 32.2 µM (inactive)
- GI50 (UACC-257): 53.2 µM (inactive)
- GI50 (UACC-62): 26.3 µM (inactive)

Structure (SMILES): COc1ccccc1NC(=O)C1=C(C)NC(C)=C(C(=O)Nc2ccccc2OC)C1c1ccccc1OC
- GI50 (786-0): > 100 µM (inactive)
- GI50 (ACHN): 74.5 µM (inactive)
- GI50 (CCRF-CEM): > 100 µM (inactive)
- GI50 (COLO 205): 36.9 µM (inactive)
- GI50 (HL-60): 75.2 µM (inactive)
- GI50 (LOX IMVI): > 100 µM (inactive)
- GI50 (Malme-3M): > 100 µM (inactive)
- GI50 (NCI-H226): > 100 µM (inactive)
- GI50 (OVCAR-4): 69 µM (inactive)
- GI50 (OVCAR-5): > 100 µM (inactive)
- GI50 (OVCAR-8): > 100 µM (inactive)
- GI50 (SF-268): > 100 µM (inactive)
- GI50 (SF-539): > 100 µM (inactive)
- GI50 (SK-MEL-2): > 100 µM (inactive)
- GI50 (SK-OV-3): > 100 µM (inactive)
- GI50 (SR): 83.2 µM (inactive)
- GI50 (UACC-257): > 100 µM (inactive)
- GI50 (UACC-62): > 100 µM (inactive)

Structure (SMILES): Cc1cc(C)[n+](CCOc2ccc(/C(=C(/Cl)c3ccccc3)c3ccccc3)cc2)c(C)c1.[O-][Cl+3]([O-])([O-])[O-]
- GI50 (786-0): 2.45 µM (inactive)
- GI50 (ACHN): 10 µM (inactive)
- GI50 (CCRF-CEM): 0.521 µM (active)
- GI50 (COLO 205): 0.292 µM (active)
- GI50 (HL-60): 0.215 µM (active)
- GI50 (LOX IMVI): 0.778 µM (active)
- GI50 (Malme-3M): 1.4 µM (inactive)
- GI50 (NCI-H226): 1.32 µM (inactive)
- GI50 (OVCAR-4): 0.944 µM (active)
- GI50 (OVCAR-5): 2.69 µM (inactive)
- GI50 (OVCAR-8): 1.33 µM (inactive)
- GI50 (RXF 393): 2.49 µM (inactive)
- GI50 (SF-268): 0.933 µM (active)
- GI50 (SF-539): 1.8 µM (inactive)
- GI50 (SK-MEL-2): 0.865 µM (active)
- GI50 (SK-OV-3): 1.25 µM (inactive)
- GI50 (SR): 0.804 µM (active)
- GI50 (UACC-257): 0.692 µM (active)
- GI50 (UACC-62): 0.741 µM (active)

Structure (SMILES): CCC1CCc2c(c(=O)oc3c2cc(OC)c2cccc(OC)c23)C1 (centres undefined)
- GI50 (786-0): > 100 µM (inactive)
- GI50 (ACHN): 87.7 µM (inactive)
- GI50 (CCRF-CEM): 28.3 µM (inactive)
- GI50 (COLO 205): > 100 µM (inactive)
- GI50 (HL-60): 17.5 µM (inactive)
- GI50 (Malme-3M): 56.9 µM (inactive)
- GI50 (NCI-H226): > 100 µM (inactive)
- GI50 (OVCAR-4): 76 µM (inactive)
- GI50 (OVCAR-5): > 100 µM (inactive)
- GI50 (OVCAR-8): 50.1 µM (inactive)
- GI50 (RXF 393): 21.7 µM (inactive)
- GI50 (SF-268): 90.2 µM (inactive)
- GI50 (SF-539): 58.6 µM (inactive)
- GI50 (SK-MEL-2): > 100 µM (inactive)
- GI50 (SK-OV-3): > 100 µM (inactive)
- GI50 (SR): 38.1 µM (inactive)
- GI50 (UACC-257): 67.1 µM (inactive)
- GI50 (UACC-62): 48.5 µM (inactive)

Structure (SMILES): COc1ccc2cc(Oc3ccc(Cl)cc3)c(=O)oc2c1
- GI50 (786-0): > 100 µM (inactive)
- GI50 (ACHN): > 100 µM (inactive)
- GI50 (CCRF-CEM): > 100 µM (inactive)
- GI50 (HL-60): > 100 µM (inactive)
- GI50 (LOX IMVI): > 100 µM (inactive)
- GI50 (Malme-3M): > 100 µM (inactive)
- GI50 (NCI-H226): > 100 µM (inactive)
- GI50 (OVCAR-4): > 100 µM (inactive)
- GI50 (OVCAR-5): > 100 µM (inactive)
- GI50 (OVCAR-8): > 100 µM (inactive)
- GI50 (RXF 393): > 100 µM (inactive)
- GI50 (SF-268): 50.8 µM (inactive)
- GI50 (SF-539): > 100 µM (inactive)
- GI50 (SR): > 100 µM (inactive)
- GI50 (UACC-257): > 100 µM (inactive)

Structure (SMILES): COc1ccc2nc3cc(Cl)ccc3c(Sc3ccc(NC(C)=O)cc3)c2c1
- GI50 (786-0): 8.15 µM (inactive)
- GI50 (ACHN): 4.86 µM (inactive)
- GI50 (CCRF-CEM): 9.18 µM (inactive)
- GI50 (COLO 205): 14.8 µM (inactive)
- GI50 (HL-60): 19.4 µM (inactive)
- GI50 (LOX IMVI): 5.73 µM (inactive)
- GI50 (Malme-3M): > 35.2 µM (inactive)
- GI50 (OVCAR-4): > 24.4 µM (inactive)
- GI50 (OVCAR-5): > 29 µM (inactive)
- GI50 (OVCAR-8): 8.28 µM (inactive)
- GI50 (RXF 393): 12.6 µM (inactive)
- GI50 (SF-539): 12.3 µM (inactive)
- GI50 (SK-MEL-2): 12.3 µM (inactive)
- GI50 (SK-OV-3): > 22.4 µM (inactive)
- GI50 (SR): 3.66 µM (inactive)
- GI50 (UACC-257): 17.4 µM (inactive)
- GI50 (UACC-62): 15.3 µM (inactive)

Structure (SMILES): CC12CCC3=C(CSC4=C3CSc3ccccc34)C1=CCCC2=O (centres undefined)
- GI50 (ACHN): 69.2 µM (inactive)
- GI50 (CCRF-CEM): 69.8 µM (inactive)
- GI50 (COLO 205): 20.3 µM (inactive)
- GI50 (HL-60): 73.1 µM (inactive)
- GI50 (LOX IMVI): 69.8 µM (inactive)
- GI50 (Malme-3M): 31 µM (inactive)
- GI50 (NCI-H226): 64.3 µM (inactive)
- GI50 (OVCAR-4): 14.8 µM (inactive)
- GI50 (OVCAR-5): 37.8 µM (inactive)
- GI50 (OVCAR-8): 78.5 µM (inactive)
- GI50 (RXF 393): 40.2 µM (inactive)
- GI50 (SF-268): > 100 µM (inactive)
- GI50 (SF-539): 75.7 µM (inactive)
- GI50 (SK-MEL-2): 64.3 µM (inactive)
- GI50 (SR): 65.8 µM (inactive)

Reference: ChEMBL document CHEMBL1201862, “PubChem BioAssay data set” (2004)
